Experimental data published in patent US20150141411A1, “SUBSTITUTED 3,4-DIHYDRO-2H-PYRIDO[1,2-A]PYRAZINE-1,6-DIONE DERIVATIVES USEFUL FOR THE TREATMENT OF (INTER ALIA) ALZHEIMER'S DISEASE” (Janssen Pharmaceuticals, Inc., priority 2012, published 2015).

What was measured:
[1] = target: T1, γ-secretase (Homo sapiens, UniProt P49768); assay: Screening for γ-secretase-modulating activity: Aβtotal in supernatant of SKNBE2 cells carrying hAPP 695 wild type (Alphalisa); format: cell-based; details: SKNBE2 human neuroblastoma cells carrying hAPP 695 wild type, overnight incubation, Aβtotal in cell supernatant
T1 construct: endogenous in cells; host or cells: SKNBE2 human neuroblastoma cells (carrying hAPP 695 wild type as substrate)
Outline: (§1)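 SKNBE2 neuroblastoma cells expressing wild-type hAPP 695 plated at 10^4 cells/well in Ultraculture with test compound, incubated overnight at 37° C. Aβ42 (C-terminal/N-terminal antibody pair) and Aβtotal (N-terminal/4G8 pair) in supernatant quantified by AlphaLISA. IC50 from 4-parameter fit of percent of compound-free control.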

[2] = target: T1, γ-secretase; assay: Screening for γ-secretase-modulating activity: Aβ42 in supernatant of SKNBE2 cells carrying hAPP 695 wild type (Alphalisa); format: cell-based; details: SKNBE2 human neuroblastoma cells carrying hAPP 695 wild type, overnight incubation, Aβ42 in cell supernatant
Outline: as §1

| SMILES | IC50 [1] | melting point | IC50 [2] |
| --- | --- | --- | --- |
| Cc1cn(-c2ccc3n(c2=O)CCN(Cc2cccc(Cl)c2Cl)C3=O)cn1 [compound 36] | > 10000 nM | 224.9 °C | 510 nM |
| Cc1cn(-c2ccc3n(c2=O)C[C@@H](C)N(Cc2cccc(Cl)c2C)C3=O)cn1 [compound 40] | > 10000 nM | 182.1 °C | 510 nM |
| Cc1cn(-c2ccc3n(c2=O)CCN(Cc2cccc(C(F)(F)F)c2)C3=O)cn1 [compound 42] | > 10000 nM | 183.4 °C | 740 nM |
| Cc1cn(-c2ccc3n(c2=O)C[C@@H](C)N(Cc2ccc(C(F)(F)F)cc2)C3=O)cn1 [compound 43] | > 10000 nM | 164.9 °C | 620 nM |
| Cc1cn(-c2ccc3n(c2=O)CCN(Cc2cc(C(F)(F)F)cc(C(F)(F)F)c2)C3=O)cn1 [compound 53] | > 10000 nM | 219 °C | 210 nM |
| Cc1cn(-c2ccc3n(c2=O)CCN(c2cccc(C(F)(F)F)c2F)C3=O)cn1 [compound 55] | > 10000 nM | 227.5 °C | 3800 nM |
| Cc1cn(-c2ccc3n(c2=O)CCN(Cc2cccc(C(F)(F)F)c2F)C3=O)cn1 [compound 56] | > 10000 nM | 197.6 °C | 1700 nM |
| Cc1cn(-c2ccc3n(c2=O)CCN(c2cccc(C(F)(F)F)c2C)C3=O)cn1 [compound 57] | > 10000 nM | 248.6 °C | > 10000 nM |
| Cc1cn(-c2ccc3n(c2=O)CCN(Cc2cccc(C(F)(F)F)c2C)C3=O)cn1 [compound 58] | > 10000 nM | 199.4 °C | 830 nM |
| COc1ccc(CN2C(=O)c3ccc(-n4cnc(C)c4)c(=O)n3C[C@H]2C)cc1C(F)(F)F [compound 67] | > 10000 nM | 140.2 °C | 560 nM |
| COc1cc(CN2C(=O)c3ccc(-n4cnc(C)c4)c(=O)n3C[C@H]2C)cc(C(F)(F)F)c1 [compound 68] | > 10000 nM | 132.4 °C | 190 nM |
| COc1ccc(CN2CCn3c(ccc(-n4cnc(C)c4)c3=O)C2=O)cc1C(F)(F)F [compound 69] | > 10000 nM | 177 °C | 1020 nM |
| Cc1cn(-c2ccc3n(c2=O)C[C@@H](C)N(Cc2cc(C(F)(F)F)ccc2F)C3=O)cn1 [compound 70] | > 10000 nM | 108.5 °C | 580 nM |
| Cc1cn(-c2ccc3n(c2=O)CCN(Cc2ccc(F)cc2C)C3=O)cn1 [compound 73] | > 10000 nM | 227.4 °C | 2570 nM |
| Cc1cn(-c2ccc3n(c2=O)CCN(Cc2cccc(OC(F)(F)F)c2)C3=O)cn1 [compound 74] | > 10000 nM | 163.4 °C | 380 nM |
| Cc1cn(-c2ccc3n(c2=O)CCN(Cc2ccc(OC(F)(F)F)cc2C)C3=O)cn1 [compound 75] | > 10000 nM | 214.1 °C | 980 nM |
| Cc1cn(-c2ccc3n(c2=O)C[C@@H](C)N(Cc2cccc(N4CCCCC4)c2)C3=O)cn1 [compound 84] | > 10000 nM | 108.2 °C | 230 nM |

Second part, the compound after the results:

| IC50 [1] | melting point | IC50 [2] | SMILES |
| --- | --- | --- | --- |
| > 10000 nM | 206.4 °C | 6610 nM | Cc1cn(-c2ccc3n(c2=O)CCN(C(C)c2cccc(Cl)c2Cl)C3=O)cn1 (single isomer, unassigned) [10b] |
| > 10000 nM | 181.1 °C | 660 nM | Cc1cn(-c2ccc3n(c2=O)CCN(C(C)c2cccc(C(F)(F)F)c2)C3=O)cn1 (single isomer, unassigned) [11a] |
| > 10000 nM | 181 °C | 7760 nM | Cc1cn(-c2ccc3n(c2=O)CCN(C(C)c2cccc(C(F)(F)F)c2)C3=O)cn1 (single isomer, unassigned) [11b] |
| > 10000 nM | 261 °C | 780 nM | Cc1cn(-c2ccc3n(c2=O)CCN(C(C)c2cn(C)c4cc(F)c(Cl)cc24)C3=O)cn1 (single isomer, unassigned) [compound 186] |
| 3310 nM | 255 °C | 10 nM | Cc1cn(-c2ccc3n(c2=O)CC(C)N(C(C)c2cn(C)c4cc(F)c(Cl)cc24)C3=O)cn1 (single isomer, unassigned) [compound 190] |
| > 10000 nM | 206 °C | 3890 nM | Cc1cn(-c2ccc3n(c2=O)CCN(C(C)c2cc(Cl)cc(Cl)c2)C3=O)cn1 (single isomer, unassigned) [compound 208] |
| > 10000 nM | 146 °C | 90 nM | Cc1cn(-c2ccc3n(c2=O)C[C@@H](C)N(C(C)c2cc(Cl)cc(Cl)c2)C3=O)cn1 (single isomer, unassigned) [compound 211] |
| 790 nM | 194 °C | 5 nM | CCn1cc(C(C)N2C(=O)c3ccc(-n4cnc(C)c4)c(=O)n3CC2C)c2cc(Cl)cc(F)c21 (single isomer, unassigned) [compound 221] |
| 6610 nM | 243 °C | 220 nM | Cc1cn(-c2ccc3n(c2=O)CC(C)N(C(C)c2cn(C)c4c(F)cc(Cl)cc24)C3=O)cn1 (single isomer, unassigned) [compound 223] |
| > 10000 nM | 192.6 °C | 1700 nM | Cc1cn(-c2ccc3n(c2=O)CCN(CCC2CCCCC2)C3=O)cn1 [compound 18] |
| > 10000 nM | 199.8 °C | 1550 nM | Cc1cn(-c2ccc3n(c2=O)C[C@@H](C)N(CC2(c4ccccc4C)CC2)C3=O)cn1 [compound 20] |
| > 10000 nM | 163 °C | 1950 nM | Cc1cn(-c2ccc3n(c2=O)C[C@@H](C)N(Cc2ccccc2C)C3=O)cn1 [compound 21] |
| > 10000 nM | 176.7 °C | 1700 nM | Cc1cn(-c2ccc3n(c2=O)CCN(Cc2cccc(Cl)c2)C3=O)cn1 [compound 25] |
| > 10000 nM | 184.4 °C | 1660 nM | Cc1cn(-c2ccc3n(c2=O)CCN(CCc2ccc(Cl)cc2)C3=O)cn1 [compound 26] |
| > 10000 nM | 168 °C | 590 nM | Cc1cn(-c2ccc3n(c2=O)CCN(CCOCc2ccc(Cl)cc2)C3=O)cn1 [compound 27] |
| > 10000 nM | 157.4 °C | 280 nM | Cc1cn(-c2ccc3n(c2=O)C[C@@H](C)N(CC2(c4ccc(Cl)cc4)CC2)C3=O)cn1 [compound 28] |
| > 10000 nM | 227.1 °C | 270 nM | Cc1cn(-c2ccc3n(c2=O)CCN(CC2(c4ccc(Cl)cc4)CC2)C3=O)cn1 [compound 29] |
| > 10000 nM | 168.5 °C | 2040 nM | Cc1cn(-c2ccc3n(c2=O)CCN(C2CC2c2ccc(Cl)cc2)C3=O)cn1 (stereo not drawn) [compound 30] |
| > 10000 nM | 182.2 °C | 1020 nM | Cc1cn(-c2ccc3n(c2=O)C[C@@H](C)N(Cc2cccc(Cl)c2F)C3=O)cn1 [compound 35] |
| 3630 nM | 190.8 °C | 330 nM | Cc1cn(-c2ccc3n(c2=O)CCN(Cc2ccc(Cl)c(Cl)c2)C3=O)cn1 [compound 38] |
